# Patent US20250282749A1 (Tango Therapeutics, Inc., priority 2022, published 2025)
# Legend:
# Type in all cases: cell-based
# [1] = tested on: PRMT5 (SDMA) in HAP1 MTAP-intact cell line; experiment: SDMA in-cell western assay, HAP1 MTAP-intact cell line; conditions: Homo sapiens, HAP1 MTAP-intact cell line (endogenous MTAP), read-out: Hap 1 MTAP intact IC50
# Source text: (§1) HAP1 MTAP-intact is a cell line in which endogenous levels of MTAP are expressed, and HAP1 MTAP-deleted is an MTAP-null cell line.
# [2] = tested on: PRMT5 (SDMA) in HAP1 MTAP-deleted cell line; experiment: SDMA in-cell western assay, HAP1 MTAP-deleted cell line; conditions: for IC50 / IC90: Homo sapiens, SDMA in-cell western, HAP1 MTAP-deleted (MTAP-null) cell line; for Hap1 MTAP intact/deleted ratio: ratio of SDMA in-cell western IC50 in HAP1 MTAP-intact to IC50 in HAP1 MTAP-deleted cell line
# Source text: as §1
# [3] = tested on: HAP1 MTAP-deleted cell line; experiment: viability assay for the MTAP-deleted cell line; conditions: Homo sapiens
SMILES,IC50 [1] [nM],IC50 [2] [nM],Hap1 MTAP intact/deleted ratio [2],IC50 [3] [nM],IC90 [2] [nM]
"CCN1C[C@H](c2ccccc2)N(C(=O)C(=O)Nc2cnc(N)c3cn[nH]c23)C[C@H]1C (racemic) [Compound 162, N-(4-Amino-1H-pyrazolo[4,3-c]pyridin-7-yl)-2-oxo-2-[rac-(2S,5R)-4-ethyl-5-methyl-2-phenyl-piperazin-1-yl]acetamide]",> 50,< 5,A (an IC50 ratio greater than or equal to 30 fold),< 100,
CCc1cc(NC(=O)C(=O)N2C[C@@H](C)N(C(=O)C(C)(C)CN(C)C)C[C@@H]2c2ccccc2)cnc1N [Compound 37],> 50,< 5,A (an IC50 ratio greater than or equal to 30 fold),< 100,< 75
"Cc1cc(NC(=O)C(=O)N2C[C@@H](C)N(C(=O)C(C)C)C[C@@H]2c2cccc(Cl)c2)cnc1N [Compound 90, N-(6-amino-5-methylpyridin-3-yl)-2-((2S,5R)-2-(3-chlorophenyl)-4-isobutyryl-5-methylpiperazin-1-yl)-2-oxoacetamide]",> 50,5 to 50,B (an IC50 ratio greater than or equal to 15 fold but lower than 30 fold),< 100,> 125
"C[C@@H]1CN(C(=O)C(=O)Nc2cnc(N)c3cn[nH]c23)[C@@H](c2ccccc2)CN1C(=O)C(C)(C)CN(C)C [Compound 54, N-(4-amino-1H-pyrazolo[4,3-c]pyridin-7-yl)-2-oxo-2-[(2S,5R)-4-[3-(dimethylamino)-2,2-dimethyl-propanoyl]-5-methyl-2-phenyl-piperazin-1-yl]acetamide]",5 to 50,5 to 50,C (an IC50 ratio of less than 15 fold),< 100,< 75
"C[C@@H]1CN(C(=O)C(=O)Nc2cnc(N)c(C3CC3)c2)[C@@H](c2ccccc2)CN1C(=O)C(C)(C)C [Compound 97, N-(6-amino-5-cyclopropylpyridin-3-yl)-2-((2S,5R)-5-methyl-2-phenyl-4-pivaloylpiperazin-1-yl)-2-oxoacetamide]",5 to 50,< 5,C (an IC50 ratio of less than 15 fold),< 100,< 75
CCc1cc(NC(=O)C(=O)N2C[C@@H](C)OC[C@@H]2c2ccc3sc(C4CCN(C)CC4)nc3c2)cnc1N [Compound 96],> 50,5 to 50,B (an IC50 ratio greater than or equal to 15 fold but lower than 30 fold),< 100,75 to 125
"Cc1cc(NC(=O)C(=O)N2C[C@@H](C)N(C(=O)C3(C(F)(F)F)CC3)C[C@@H]2c2ccsc2)cnc1N [Compound 138, N-(6-amino-5-methyl-3-pyridyl)-2-[(2S,5R)-5-methyl-2-(3-thienyl)-4-[1-(trifluoromethyl)cyclopropanecarbonyl]piperazin-1-yl]-2-oxo-acetamide]",> 50,5 to 50,A (an IC50 ratio greater than or equal to 30 fold),< 100,> 125
"Cc1cccc([C@H]2CN(C(=O)C3(C)CC3)[C@H](C)CN2C(=O)C(=O)Nc2cnc(N)c(C)c2)c1 [Compound 40, N-(6-amino-5-methylpyridin-3-yl)-2-((2S,5R)-5-methyl-4-(1-methylcyclopropanecarbonyl)-2-(m-tolyl)piperazin-1-yl)-2-oxoacetamide]",> 50,5 to 50,C (an IC50 ratio of less than 15 fold),< 100,> 125
"CC(C)C(=O)N1C[C@H](c2cccc(Cl)c2)N(C(=O)C(=O)Nc2cnc(N)c(C3CC3)c2)C[C@H]1C [Compound 133, N-(6-amino-5-cyclopropylpyridin-3-yl)-2-((2S,5R)-2-(3-chlorophenyl)-4-isobutyryl-5-methylpiperazin-1-yl)-2-oxoacetamide]",> 50,5 to 50,B (an IC50 ratio greater than or equal to 15 fold but lower than 30 fold),< 100,< 75
"C[C@@H]1CN(C(=O)C(=O)Nc2cncc3cn[nH]c23)[C@@H](c2ccccc2)CN1C(=O)C(C)(C)C [Compound 156, 2-((2S,5R)-5-methyl-2-phenyl-4-pivaloylpiperazin-1-yl)-2-oxo-N-(1H-pyrazolo[4,3-c]pyridin-7-yl)acetamide]",5 to 50,< 5,C (an IC50 ratio of less than 15 fold),< 100,< 75
"CCc1cc(NC(=O)C(=O)N2CCN(C(=O)C3(C(F)(F)F)CC3)C[C@@H]2c2ccc(F)c(Cl)c2)cnc1N [Compound 47, N-(6-amino-5-ethyl-3-pyridyl)-2-[(2S)-2-(3-chloro-4-fluoro-phenyl)-4-[1-(trifluoromethyl)cyclopropanecarbonyl]piperazin-1-yl]-2-oxo-acetamide]",> 50,> 50,C (an IC50 ratio of less than 15 fold),> 1000,> 125
"CCc1cc(NC(=O)C(=O)N2C[C@@H](C)N(C(=O)C3(C(F)(F)F)CC3)C[C@@H]2c2cccc(C(F)(F)F)c2)cnc1N [Compound 150, N-(6-amino-5-ethylpyridin-3-yl)-2-((2S,5R)-5-methyl-4-(1-(trifluoromethyl)cyclopropanecarbonyl)-2-(3-(trifluoromethyl)phenyl)piperazin-1-yl)-2-oxoacetamide]",> 50,5 to 50,A (an IC50 ratio greater than or equal to 30 fold),< 100,> 125
CC(C)CN1C[C@H](c2ccccc2)N(C(=O)C(=O)Nc2cnc(N)c3cn[nH]c23)C[C@H]1C [Compound 16],5 to 50,< 5,A (an IC50 ratio greater than or equal to 30 fold),< 100,< 75
"CCc1cc(NC(=O)C(=O)N2CCN(C(=O)C3(C(F)(F)F)CC3)C[C@H]2c2ccc(F)c(Cl)c2)cnc1N (single isomer, unassigned) [Compound 123]",> 50,5 to 50,A (an IC50 ratio greater than or equal to 30 fold),100 to 1000,> 125
"Cc1cc(NC(=O)C(=O)N2C[C@@H](C)N(C(=O)C3(C(F)(F)F)CC3)C[C@@H]2c2ccc(F)c(F)c2)cnc1N [Compound 38, N-(6-amino-5-methylpyridin-3-yl)-2-((2S,5R)-2-(3,4-difluorophenyl)-5-methyl-4-(1-(trifluoromethyl)cyclopropanecarbonyl)piperazin-1-yl)-2-oxoacetamide]",> 50,5 to 50,C (an IC50 ratio of less than 15 fold),< 100,75 to 125
"COc1ncc(NC(=O)C(=O)N2C[C@@H](C)N(C(=O)C(C)C)C[C@@H]2c2ccc(F)cc2)cc1C(N)=O [Compound 83, 5-[[2-[(2S,5R)-2-(4-fluorophenyl)-5-methyl-4-(2-methylpropanoyl)piperazin-1-yl]-2-oxo-acetyl]amino]-2-methoxy-pyridine-3-carboxamide]",> 50,5 to 50,A (an IC50 ratio greater than or equal to 30 fold),100 to 1000,75 to 125
